In ChEMBL document CHEMBL4680289, “10-(4-Phenylpiperazine-1-carbonyl)acridin-9(10H)-ones and related compounds: Synthesis, antiproliferative activity and inhibition of tubulin polymerization” (Bioorg Med Chem Lett, 2021):
The source made the active and inactive calls. No cut-off for these calls is given here.

Legend:
[1] = test system: K562; assay: Cell cycle arrest in human K562 cells assessed as increase in cell accumulation at G2/M phase at < 30 nM measured after 18 hrs by propidium iodide/RNase FACSCalibur staining based flow cytometry; type: functional; details: dose nM <30, time 18.0 hrs
[2] = target: Tubulin beta (Homo sapiens) (UniProt P68371+Q9H4B7+Q13509+P04350+Q3ZCM7+P07437+Q13885+Q9BVA1+Q9BUF5+A6NNZ2); assay: Inhibition of N,N'-Ethylenebis(iodoacetamide) binding to beta-tubulin colchicine binding site in human K562 cells assessed as reduction in EBI/beta-tubulin adduct formation at 1 to 10 uM preincubated for 2.5 hrs followed by EBI addition and measured after 1.5 hrs by Western blot analysis; type: cell-based; details: dose 1-10 µM, time 4.0 hrs
[3] = test system: K562; assay: Induction of apoptosis in human K562 cells assessed as early apoptotic cells at 0.1 uM measured after 6 hrs by Annexin V-FITC/7-AAD staining based flow cytometric analysis relative to control; type: functional
[4] = test system: K562; assay: Induction of apoptosis in human K562 cells assessed as necrotic cells at 0.3 micromol/L measured after 48 hrs by Annexin V-FITC/7-AAD staining based flow cytometric analysis (reference value: 0.46 %); type: functional; details: dose 0.3 µmol/L, at 0.3 µM
[5] = test system: K562; assay: Induction of apoptosis in human K562 cells assessed as late apoptotic cells at 0.1 uM measured after 12 hrs by Annexin V-FITC/7-AAD staining based flow cytometric analysis relative to control; type: functional
[6] = test system: K562; assay: Induction of apoptosis in human K562 cells assessed as viable cells at 0.1 uM measured after 12 hrs by Annexin V-FITC/7-AAD staining based flow cytometric analysis relative to control; type: functional; details: read-out: Activity
[7] = test system: K562; assay: Induction of apoptosis in human K562 cells assessed as viable cells at 0.1 micromol/L measured after 48 hrs by Annexin V-FITC/7-AAD staining based flow cytometric analysis (reference value: 92.85 %); type: functional; details: K562, 48 h, dose 0.1 µmol/L, read-out: Activity
[8] = test system: K562; assay: Induction of apoptosis in human K562 cells assessed as early apoptotic cells at 0.1 uM measured after 72 hrs by Annexin V-FITC/7-AAD staining based flow cytometric analysis relative to control; type: functional
[9] = test system: K562; assay: Induction of apoptosis in human K562 cells measured after 48 hrs by Annexin V-FITC/7-AAD staining based flow cytometric analysis; type: functional, cell-based; details: dose 0.01-3 µmol/L
[10] = test system: K562; assay: Induction of apoptosis in human K562 cells assessed as early apoptotic cells at 0.1 uM measured after 24 hrs by Annexin V-FITC/7-AAD staining based flow cytometric analysis relative to control; type: functional
[11] = test system: K562; assay: Induction of apoptosis in human K562 cells assessed as necrotic cells at 0.03 micromol/L measured after 48 hrs by Annexin V-FITC/7-AAD staining based flow cytometric analysis (reference value: 0.46 %); type: functional; details: dose 0.03 µmol/L, at 0.03 µM
[12] = test system: K562; assay: Induction of apoptosis in human K562 cells assessed as late apoptotic cells at 0.3 micromol/L measured after 48 hrs by Annexin V-FITC/7-AAD staining based flow cytometric analysis (reference value: 2.49 %); type: functional; details: dose 0.3 µmol/L, at 0.3 µM
[13] = test system: K562; assay: Induction of apoptosis in human K562 cells assessed as late apoptotic cells at 0.1 micromol/L measured after 48 hrs by Annexin V-FITC/7-AAD staining based flow cytometric analysis (reference value: 2.49 %); type: functional; details: dose 0.1 µmol/L, at 0.1 µM
[14] = test system: K562; assay: Induction of apoptosis in human K562 cells assessed as necrotic cells at 0.1 uM measured after 12 hrs by Annexin V-FITC/7-AAD staining based flow cytometric analysis relative to control; type: functional
[15] = test system: K562; assay: Induction of apoptosis in human K562 cells assessed as early apoptotic cells at 0.3 micromol/L measured after 48 hrs by Annexin V-FITC/7-AAD staining based flow cytometric analysis (reference value: 4.2 %); type: functional; details: dose 0.3 µmol/L, at 0.3 µM
[16] = test system: K562; assay: Induction of apoptosis in human K562 cells assessed as viable cells at 1 micromol/L measured after 48 hrs by Annexin V-FITC/7-AAD staining based flow cytometric analysis (reference value: 92.85 %); type: functional; details: K562, 48 h, dose 1 µmol/L, read-out: Activity
[17] = test system: K562; assay: Induction of apoptosis in human K562 cells assessed as viable cells at 0.03 micromol/L measured after 48 hrs by Annexin V-FITC/7-AAD staining based flow cytometric analysis (reference value: 92.85 %); type: functional; details: K562, 48 h, dose 0.03 µmol/L, read-out: Activity
[18] = test system: K562; assay: Induction of apoptosis in human K562 cells assessed as late apoptotic cells at 0.01 micromol/L measured after 48 hrs by Annexin V-FITC/7-AAD staining based flow cytometric analysis (reference value: 2.49 %); type: functional; details: dose 0.01 µmol/L, at 0.01 µM
[19] = test system: K562; assay: Induction of apoptosis in human K562 cells assessed as early apoptotic cells at 0.1 uM measured after 12 hrs by Annexin V-FITC/7-AAD staining based flow cytometric analysis relative to control; type: functional
[20] = test system: K562; assay: Induction of apoptosis in human K562 cells assessed as viable cells at 0.1 uM measured after 24 hrs by Annexin V-FITC/7-AAD staining based flow cytometric analysis relative to control; type: functional; details: read-out: Activity
[21] = test system: K562; assay: Induction of apoptosis in human K562 cells assessed as necrotic cells at 1 micromol/L measured after 48 hrs by Annexin V-FITC/7-AAD staining based flow cytometric analysis (reference value: 0.46 %); type: functional; details: dose 1 µmol/L, at 1 µM
[22] = test system: K562; assay: Induction of apoptosis in human K562 cells assessed as late apoptotic cells at 1 micromol/L measured after 48 hrs by Annexin V-FITC/7-AAD staining based flow cytometric analysis (reference value: 2.49 %); type: functional; details: dose 1 µmol/L, at 1 µM
[23] = test system: K562; assay: Induction of apoptosis in human K562 cells assessed as early apoptotic cells at 1 micromol/L measured after 48 hrs by Annexin V-FITC/7-AAD staining based flow cytometric analysis (reference value: 4.2 %); type: functional; details: dose 1 µmol/L, at 1 µM
[24] = test system: K562; assay: Antiproliferative activity against human K562 cells assessed as cell growth inhibition measured after 48 hrs by MTT assay; type: functional, cell-based; details: K562, 48 h
[25] = test system: K562; assay: Induction of apoptosis in human K562 cells assessed as viable cells at 0.1 uM measured after 6 hrs by Annexin V-FITC/7-AAD staining based flow cytometric analysis relative to control; type: functional; details: read-out: Activity
[26] = test system: K562; assay: Induction of apoptosis in human K562 cells at 30 nM measured after 48 hrs by Annexin V-FITC/7-AAD staining based flow cytometric analysis; type: functional, cell-based
[27] = test system: K562; assay: Induction of apoptosis in human K562 cells assessed as early apoptotic cells at 0.01 micromol/L measured after 48 hrs by Annexin V-FITC/7-AAD staining based flow cytometric analysis (reference value: 4.2 %); type: functional; details: dose 0.01 µmol/L, at 0.01 µM
[28] = test system: K562; assay: Induction of apoptosis in human K562 cells assessed as necrotic cells at 0.1 uM measured after 24 hrs by Annexin V-FITC/7-AAD staining based flow cytometric analysis relative to control; type: functional
[29] = test system: K562; assay: Cell cycle arrest in human K562 cells assessed as increase in cell accumulation at G2/M phase measured after 18 hrs by propidium iodide/RNase FACSCalibur staining based flow cytometry; type: functional; details: dose 0.003-1 µmol/L

Structure (SMILES): COc1cc(OC)cc(N2CCN(C(=O)n3c4ccccc4c(=O)c4ccccc43)CC2)c1
- Activity [1]: Active
- inhibition [2]: Active
- Activity [3]: 4.84%
- Activity [4]: 0.35%
- Activity [5]: 2.86%
- viability at 0.1 µM [6]: 87.8%
- viability at 0.1 µM [7]: 41.5%
- Activity [8]: 11.57%
- Activity [9]: Dose-dependent effect
- Activity [10]: 26.44%
- Activity [11]: 0.53%
- Activity [12]: 32.32%
- Activity [13]: 22.22%
- Activity [14]: 0.29%
- Activity [15]: 24.76%
- viability at 1 µM [16]: 41%
- viability at 0.03 µM [17]: 52.2%
- Activity [18]: 4.85%
- Activity [19]: 9.02%
- viability at 0.1 µM [20]: 66.3%
- Activity [21]: 0.35%
- Activity [22]: 31.22%
- Activity [23]: 27.4%
- IC50 [24]: 13 nM
- viability at 0.1 µM [25]: 91.6%
- Activity [26]: Active
- Activity [27]: 6.24%
- Activity [28]: 0.23%
- Activity [29]: Dose-dependent effect
